From PubChem BioAssay (NCI)
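Briefly, cells in 96-well plates were exposed to five compound concentrations for 48 h, and endpoints were estimated by linear interpolation. Definition used: TGI = concentration required for complete inhibition of growth.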

Assays:
Assay in all cases: NCI anticancer screen, dose series, 48 h
[1] = test system: CCRF-CEM leukemia
[2] = test system: HL-60(TB) leukemia
[3] = test system: HS 578T breast
[4] = test system: OVCAR-4 ovarian
[5] = test system: OVCAR-5 ovarian
[6] = test system: SNB-75 CNS
[7] = test system: UACC-62 melanoma
[8] = test system: UO-31 renal

Row | Compound | TGI [1] [µM] | TGI [2] [µM] | TGI [3] [µM] | TGI [4] [µM] | TGI [5] [µM] | TGI [6] [µM] | TGI [7] [µM] | TGI [8] [µM]
1 | O=C1NC(=Nc2ccccc2)C(=Nc2ccccc2)N1c1ccccc1 | 76.3 | 52.8 | 42.9 | 33.1 | 32.7 | 30.9 | 25.3 | 30.1
2 | CCOC(=O)c1nc2cc(C(F)(F)F)ccc2nc1Oc1ccc(F)cc1 | > 100 | > 100 | > 100 | > 100 | > 100 | > 100 | > 100 | > 100
3 | Nc1c2cc3ccc2nc2ccc(cc12)OCCOCCOCCOCCOCCOCCO3 | > 10 | > 10 | > 10 | > 10 | > 10 | > 10 | > 10 | 
4 | Cc1cn(C2OC(CO)C(O)C2F)c(=O)[nH]c1=O (centres undefined) | > 100 | > 100 | > 100 | > 100 | > 100 | > 100 | > 100 | > 100
5 | CC(=O)NC1C(OCc2ccccc2)OC(CO)C(O)C1OCC(=O)N[C@@H](C)C(=O)N[C@H](CCC(=O)NCCNc1ccc([N+](=O)[O-])c2[nH]c3ccccc3c(=O)c12)C(N)=O (some centres undefined) | > 100 | > 100 | > 100 | 67.9 | > 100 | 61.5 | 46.6 | 37.4
6 | C#CC(O)/C=C/C(O)CCCC(O)CC#CC(O)C#CCCCCC(O)/C=C/CCCC(O)/C=C/CCCCCCCCCCCCCC(O)C(O)C#CC(=O)O (centres undefined) | > 25 | > 25 | > 25 | > 25 | > 25 | > 25 | > 25 | > 25
7 | C#C[C@]1(O)CC[C@H]2[C@@H]3CCC4=C/C(=N/OC(=O)c5cccc6c(=O)c7ccccc7[nH]c56)CCC4[C@H]3CC[C@@]21CC (some centres undefined) | > 54.1 | 11.7 | > 100 | > 100 | > 100 | > 100 | > 71.9 | > 84.3
8 | CCN(CC)CCN1C(=O)C(=O)N(c2cccc3ccccc23)C1=O | > 10 | > 10 | > 10 | > 10 | > 10 | > 10 | > 10 | > 10
9 | C=C(C)C(=O)OC1C[C@H](COC(C)=O)C2CC=C(CO)C2C2OC(=O)C(=C)[C@H]12 (some centres undefined) | 31.5 | 76 | > 100 |  | > 100 | > 100 | > 100 | > 100
10 | C=CCN(CCN(CC=C)S(=O)(=O)c1ccc(C)cc1)S(=O)(=O)c1ccc(C)cc1 | > 100 |  | > 100 | > 100 |  | > 100 |  | > 100
11 | C[C@H]1O[C@@H](C(C)(C)C)OC(=O)[C@@H]1C(OC(=O)c1ccccc1)c1cccc2ccccc12 (some centres undefined) | > 100 |  | > 100 | > 100 | > 100 | > 100 | > 100 | > 100
12 | O=C(Nc1ccc2cc3ccccc3cc2c1)c1cc2c(cc1Cl)Sc1nccn1S2(=O)=O |  | 46.9 | > 100 | > 100 | 93.5 | 81.2 | > 100 | > 100
